Our source for the 3 h FOB score values is the OligoGym collection.

HELM strings list units from the 5' end as sugar, base in round brackets, then linkage (d deoxyribose, r ribose, m 2'-O-methyl, p phosphodiester). Strings are as the collection lists them; they lack the last nucleoside at the 3' end of the tested compound. [moe] = 2'-O-(2-methoxyethyl) (MOE); [sp] = phosphorothioate linkage; [m5C] = 5-methylcytosine

This data set deals with PRNP. Put plainly: mouse, dose not given. As to conditions: ASO.

The substance “RNA1{[moe]([m5C])[sp].[moe]([m5C])p.[moe]([m5C])p.[moe]([m5C])p.[moe](A)[sp].d(G)[sp].d(T)[sp].d(G)[sp].d(T)[sp].d(T)[sp].d([m5C])[sp].d([m5C])[sp].d(A)[sp].d(T)[sp].d([m5C])[sp].[moe]([m5C])p.[moe](T)p.[moe]([m5C])[sp].[moe]([m5C])}$$$$ (last 3' nucleoside missing)” registered a 3 h FOB score of 0 score 0-7.
